Values quoted from earlier work as cited in US20070060557A1, “Superoxide dismutase mimics for the treatment of optic nerve and retinal damage” (priority 2003, published 2007).

Tests used:
[1] = system: light-induced retinal damage in albino rats; conditions: albino rats (Wang et al. 1995)
[2] = system: rat ocular ischemia-reperfusion model; conditions: intravitreal injections (Rios et al. 1999)

SMILES | light-induced retinal damage [1] | functional protection [2] [%]
CC1(C)CC(O)CC(C)(C)N1[O] [4-hydroxy-2,2,6,6-tetramethylpiperidine-1-oxyl] | inhibited light-induced retinal damage | 
CNC(=S)NC [dimethylthiourea] |  | 40
